These results are taken from a polymer gas permeability compilation.

SMILES strings stand for the structures.

The molecule `*/C(C)=C(/*)[Si](C)(C)CCCCCCCC` (repeat unit) showed a CH4 permeability of 13 Barrer, a CO2 permeability of 100 Barrer, an H2 permeability of 47 Barrer and an N2 permeability of 19 Barrer. The O2 permeability was 23 Barrer.
The molecule `*CC(*)[Si](C)(C)c1ccccc1` (repeat unit) registered a CO2 permeability of 12.3 Barrer, an N2 permeability of 0.45 Barrer and an O2 permeability of 2.47 Barrer.
The molecule `*C(=C(*)c1ccc2c(c1)C(C)(C)CC2(C)C)c1ccc(F)cc1` (repeat unit) showed a CH4 permeability of 34300 Barrer, a CO2 permeability of 47000 Barrer, an H2 permeability of 33300 Barrer and an N2 permeability of 15600 Barrer. This molecule also gave an O2 permeability of 17900 Barrer.
With `*c1ccc2c(-c3c(OC(C)=O)ccc4cc(N5C(=O)c6ccc(Oc7ccc8c(c7)C(=O)N(*)C8=O)cc6C5=O)ccc34)c(OC(C)=O)ccc2c1` (repeat unit), the CH4 permeability amounted to 0.05 Barrer, the CO2 permeability came to 2.38 Barrer, the H2 permeability amounted to 3.18 Barrer and the N2 permeability was 0.1 Barrer. The O2 permeability was found to be 0.61 Barrer.
For the molecule `*C(C(=O)OC(C)CC)C(*)C(=O)OC(C)(C)C` (repeat unit), the H2 permeability was determined as 145 Barrer, the N2 permeability was 13 Barrer and the O2 permeability turned out to be 39 Barrer.
With `*c1ccc(N2C(=O)c3ccc([Si](C)(C)c4ccc5c(c4)C(=O)N(*)C5=O)cc3C2=O)cc1` (repeat unit), the CH4 permeability came out at 0.064 Barrer, the CO2 permeability was determined as 2.75 Barrer, the H2 permeability is 9.4 Barrer and the N2 permeability was 0.105 Barrer. The molecule further yielded an O2 permeability of 0.6 Barrer.
`*c1ccc(Cc2ccc(N3C(=O)c4cc(Oc5ccccc5)c(-c5cc6c(cc5Oc5ccccc5)C(=O)N(*)C6=O)cc4C3=O)cc2)cc1` (repeat unit) registered a CH4 permeability of 0.85 Barrer, a CO2 permeability of 29 Barrer, an N2 permeability of 0.73 Barrer and an O2 permeability of 3.36 Barrer.
Taken in the same sequence, the figures for `*CC(*)(C)C(=O)OCCOCCOCCOCC` (repeat unit) were 4.8 Barrer, 74.4 Barrer, 2 Barrer and 3.9 Barrer.
`*c1cccc2c(-n3c(=O)c4cc5oc6cc7c(cc6oc5cc4c3=O)C3(CC(C)(C)c4cc5oc6cc8c(=O)n(*)c(=O)c8cc6oc5cc43)CC7(C)C)cccc12` (repeat unit): the CH4 permeability is 27 Barrer, the CO2 permeability stood at 510 Barrer, the H2 permeability was found to be 350 Barrer and the N2 permeability was 19 Barrer. The O2 permeability was 77 Barrer.
`*c1cccc(-c2nc3cc(-c4ccc5[nH]c(*)nc5c4)ccc3[nH]2)n1` (repeat unit) had an H2 permeability of 1.38 Barrer and an O2 permeability of 0.045 Barrer.
With `*c1ccc2c(c1)-c1nc3ccc(-c4ccc5c(c4)nc4n5C(=O)c5cc(C(c6ccc(-c7nc8cc(C(c9ccc%10oc(-c%11ccc(C(*)(C(F)(F)F)C(F)(F)F)cc%11)nc%10c9)(C(F)(F)F)C(F)(F)F)ccc8o7)cc6)(C(F)(F)F)C(F)(F)F)ccc5-4)cc3n1C2=O` (repeat unit), the CH4 permeability was 46 Barrer, the CO2 permeability amounted to 1800 Barrer, the H2 permeability amounted to 1990 Barrer and the N2 permeability turned out to be 85 Barrer. The molecule also came in with an O2 permeability of 421 Barrer.
In the case of `*c1ccc(-c2nnc(-c3ccc(N4C(=O)c5ccc(C(c6ccc7c(c6)C(=O)N(*)C7=O)(C(F)(F)F)C(F)(F)F)cc5C4=O)cc3)o2)cc1` (repeat unit), the CH4 permeability is 0.25 Barrer, the CO2 permeability was 15.6 Barrer and the N2 permeability is 0.61 Barrer.
For `*CC(*)C(=O)OCC(F)(F)C(F)(F)C(F)(F)C(F)(F)C(F)(F)C(F)(F)C(F)(F)F` (repeat unit), the CH4 permeability is 57 Barrer, the CO2 permeability was 520 Barrer, the H2 permeability came out at 300 Barrer and the N2 permeability was 54 Barrer. Besides, the O2 permeability was 135 Barrer.
